These results are taken from US20130123355A1, “Fatty acids and metal ions compositions and uses thereof” (priority 2011, published 2013).

Data set [1] is described as follows: Li levels in cerebrospinal fluid of rats fed Li compositions. Type of data set: in vivo, Sprague-Dawley rats. To be noted: oral gavage, about 20 mg elemental Li per Kg per day for 3 weeks, compared with lithium carbonate. Here is the method:
Sprague-Dawley rats are fed various […] compositions by oral gavage so as to provide about 20 mg of elemental Li per Kg per day for 3 weeks. The lithium compositions include Li-DHA, Li-DHA-LysoPC and Li-EPA. Control rats were administered equivalent molar amount of Lithium carbonate. Cerebrospinal fluid is collected at the end of the treatment, and lithium is measured by atomic absorption spectroscopy.

The test system of a further data set is Sprague-Dawley rats. Kind of data set: Forced Swim Test. Format: in vivo. As to conditions: diet, about 15.5 mg/Kg/day elemental lithium, compared with the fatty acid alone or lithium carbonate. The text has this:
Sprague-Dawley rats are fed diet supplemented with Mg-DHA, Mg Citrate, or DHA. […] Various established parameters of antidepressant activity including reduced immobility time, increased swimming, and increased climbing behavior are quantitated to assess the antidepressant activity.
Sprague-Dawley rats are fed diet supplemented with Mg-DHA-LysoPC, Mg Citrate, or DHA-lysoPC. […] Various established parameters of antidepressant activity including reduced immobility time, increased swimming, and increased climbing behavior are quantitated to assess the antidepressant activity.
Sprague-Dawley rats are fed diet supplemented with Mg-EPA, Mg Citrate, or EPA. […] Various established parameters of antidepressant activity including reduced immobility time, increased swimming, and increased climbing behavior are quantitated to assess the antidepressant activity.
Sprague-Dawley rats are fed diet supplemented with Zn-DHA, Zinc gluconate, or DHA. On Zn-DHA or Zinc gluconate supplemented diet, rats consume about 1 mg/kg body weight/day of elemental zinc, on a feeding schedule so as to maintain 85% of its free-feeding weight. […] Various established parameters of antidepressant activity including reduced immobility time, increased swimming, and increased climbing behavior are quantitated to assess the antidepressant activity.
Sprague-Dawley rats are fed diet supplemented with Zn-DHA-lysoPC, zinc gluconate, or DHA. On Zn-DHA-lysoPC or zinc gluconate supplemented diet, rats consume about 1 mg/kg body weight/day of elemental zinc, on a feeding schedule so as to maintain 85% of its free-feeding weight. […] Various established parameters of antidepressant activity including reduced immobility time, increased swimming, and increased climbing behavior are quantitated to assess the antidepressant activity.
Sprague-Dawley rats are fed diet supplemented with Zn-EPA, zinc gluconate, or EPA. On Zn-EPA or zinc gluconate supplemented diet, rats consume about 1 mg/kg body weight/day of elemental zinc, on a feeding schedule so as to maintain 85% of its free-feeding weight. […] Various established parameters of antidepressant activity including reduced immobility time, increased swimming, and increased climbing behavior are quantitated to assess the antidepressant activity.
Sprague-Dawley rats are fed diet supplemented with Li-DHA, lithium carbonate, or DHA. […] Various established parameters of antidepressant activity including reduced immobility time, increased swimming, and increased climbing behavior are quantitated to assess the antidepressant activity.
Sprague-Dawley rats are fed diet supplemented with Li-DHA-lysoPC, lithium carbonate, or DHA. […] Various established parameters of antidepressant activity including reduced immobility time, increased swimming, and increased climbing behavior are quantitated to assess the antidepressant activity.
Sprague-Dawley rats are fed diet supplemented with Li-EPA, lithium carbonate, or EPA. […] Various established parameters of antidepressant activity including reduced immobility time, increased swimming, and increased climbing behavior are quantitated to assess the antidepressant activity.

For data set [2], the system named is Patients presenting symptoms of depression. The data set can be described thus: Hamilton Depression Rating scale and Beck Depression Inventory in depression. Type of data set: in vivo, human. To be noted: 113 mg elemental Li 3 to 4 times a day for two weeks, with standard of care, compared with lithium carbonate or the fatty acid alone. Here is the method:
Patients presenting symptoms of depression, in addition to being provided standard of care for depression, are prescribed Mg-DHA or Mg Citrate capsules formulated to provide 150 mg of elemental magnesium, or DHA capsules for two weeks when recovery from depression is assessed.
Patients presenting symptoms of depression, in addition to being provided standard of care for depression, are prescribed Mg-DHA-LysoPC or Mg Citrate capsules formulated to provide 150 mg of elemental magnesium, or DHA-LysoPC capsules for two weeks when recovery from depression is assessed.
Patients presenting symptoms of depression, in addition to being provided standard of care for depression, are prescribed Mg-EPA or Mg Citrate capsules formulated to provide 150 mg of elemental magnesium, or EPA capsules for two weeks when recovery from depression is assessed.
Patients presenting symptoms of depression, in addition to being provided standard of care for depression, are prescribed Zn-DHA or zinc gluconate capsules formulated to provide a daily dosage of 30 mg of elemental zinc, or DHA capsules for two weeks when recovery from depression is assessed.
Patients presenting symptoms of depression, in addition to being provided standard of care for depression, are prescribed Zn-DHA-LysoPC or zinc gluconate capsules formulated to provide a daily dosage of 30 mg of elemental zinc, or DHA-LysoPC capsules for two weeks when recovery from depression is assessed.
Patients presenting symptoms of depression, in addition to being provided standard of care for depression, are prescribed Zn-EPA or zinc gluconate capsules that provide a daily dosage of 30 mg of elemental Zn, or EPA capsules for two weeks when recovery from depression is assessed.

Data set [3] deals with C57BL/6J mice. Kind of data set: d-amphetamine induced hyperlocomotion, supplemented diet. To be noted: about 15.5 mg/Kg/day elemental lithium, 0.5 mg/Kg d-amphetamine on days 0, 7, 14, 21, compared with the fatty acid alone or lithium chloride. Format: in vivo.
Experimental: C57BL/6J mice are fed diet supplemented with Li-DHA, lithium chloride, or DHA. On Li-DHA or lithium chloride supplemented diet, mice consume, on an average, about 15.5 mg/Kg/day of elemental lithium, on a feeding schedule so as to maintain 85% of its free-feeding weight. […] On 0, 7, 14, and 21 days of starting the supplement diet, mice are injected with 0.5 mg/Kg d-amphetamine and observed for hyperlocomotion using automated video recording device.
C57BL/6J mice are fed diet supplemented with Li-DHA-lysoPC, lithium chloride, or DHA-lysoPC. On Li-DHA-lysoPC or lithium chloride supplemented diet, mice consume, on an average, about 15.5 mg/Kg/day of elemental lithium, on a feeding schedule so as to maintain 85% of its free-feeding weight. […] On 0, 7, 14, and 21 days of starting the supplement diet, mice are injected with 0.5 mg/Kg d-amphetamine and observed for hyperlocomotion using automated video recording device.
C57BL/6J mice are fed diet supplemented with Li-EPA, lithium chloride, or EPA. On Li-EPA or lithium chloride supplemented diet, mice consume, on an average, about 15.5 mg/Kg/day of elemental lithium, on a feeding schedule so as to maintain 85% of its free-feeding weight. […] On 0, 7, 14, and 21 days of starting the supplement diet, mice are injected with 0.5 mg/Kg d-amphetamine and observed for hyperlocomotion using automated video recording device.
Data set [4] has as its system C57BL/6J mice. The data set can be described thus: d-amphetamine induced hyperlocomotion, acute injection. Format: in vivo. As to conditions: injected 15.5 mg/Kg elemental lithium fifteen minutes after d-amphetamine (0.5 mg/Kg), observed 120 minutes, compared with the fatty acid alone or lithium chloride.
Experimental: C57BL/6J mice are injected with d-amphetamine (0.5 mg/Kg) and increased locomotion is measured. Fifteen minutes later, Li-DHA, or lithium chloride dose is injected to deliver 15.5 mg/Kg elemental lithium. […] Subsequently, the mice are observed for hyperlocomotion for the next 120 minutes using automated video recording device.
C57BL/6J mice are injected with d-amphetamine (0.5 mg/Kg) and increased locomotion is measured. Fifteen minutes later, Li-DHA-lysoPC, or lithium chloride dose is injected to deliver 15.5 mg/Kg elemental lithium. […] Subsequently, the mice are observed for hyperlocomotion for the next 120 minutes using automated video recording device.
C57BL/6J mice are injected with d-amphetamine (0.5 mg/Kg) and increased locomotion is measured. Fifteen minutes later, Li-EPA, or lithium chloride dose is injected to deliver 15.5 mg/Kg elemental lithium. […] Subsequently, the mice are observed for hyperlocomotion for the next 120 minutes using automated video recording device.
Data set [5] has as its system Patients presenting symptoms of bipolar disorder. The data set can be described thus: Hamilton Depression Rating scale, Beck Depression Inventory and Young Mania Rating Scale in bipolar disorder. Format: in vivo, human. As to conditions: 113 mg elemental Li 3 to 4 times a day for two weeks, with standard of care, compared with lithium carbonate or the fatty acid alone.

The conditions of data set [6]: intravenous infusion for 5 days; cited from earlier work.

For the molecule `CC/C=C\C/C=C\C/C=C\C/C=C\C/C=C\C/C=C\CCC(=O)[O-].[Li+]` [Li-DHA], the “CSF levels of lithium” value in data set [1] is “higher”. For the same molecule, in the data set on Sprague-Dawley rats, the immobility time entry is reported as “reduction”; the “swimming and climbing behavior” value is “significant increase”. The “Hamilton Depression Rating scale and Beck Depression Inventory scores” value in data set [2] is given as “statistically significant improvement”. In addition, in the data set with C57BL/6J mice [3], the induced hyperlocomotion result was “lower levels”. Also, the induced hyperlocomotion result with C57BL/6J mice [4] is on record as “lower levels”. Also, the “Hamilton Depression Rating scale, Beck Depression Inventory and Young Mania Rating Scale scores” value in data set [5] is on record as “statistically significant improvement”.
In the case of `CC/C=C\C/C=C\C/C=C\C/C=C\C/C=C\CCCC(=O)[O-].[Li+]` [Li-EPA], the “CSF levels of lithium” value in data set [1] is recorded as “higher”. Moreover, in the data set on Sprague-Dawley rats, the immobility time result is reported as “reduction”; the “swimming and climbing behavior” value was “significant increase”. In addition, in data set [2], the “Hamilton Depression Rating scale and Beck Depression Inventory scores” value was “statistically significant improvement”. Besides, the induced hyperlocomotion entry with C57BL/6J mice [3] was “lower levels”. In addition, the induced hyperlocomotion result in the data set on C57BL/6J mice [4] is on record as “lower levels”. In addition, in data set [5], the “Hamilton Depression Rating scale, Beck Depression Inventory and Young Mania Rating Scale scores” value was “statistically significant improvement”.
As for `O=S(=O)([O-])[O-].[Mg+2]` [magnesium sulfate], in data set [6], the “Mg levels in the brain” value is reported as “failed to increase” and the “increase of blood levels of magnesium” value is 3 fold.
